Measured values from PMC5374619, “The synthetic peptide CIGB-300 modulates CK2-dependent signaling pathways affecting the survival and chemoresistance of non-small cell lung cancer cell lines” (Cancer Cell International, 2017).
Positions of bridges follow the written chain, without caps; N, C: chain ends. Non-standard residues stand in square brackets, D forms with d. Residues, ends and D or L forms follow the SMILES beside them. βAla = NCCC(=O)O

What was measured:
[1] = tested on: A549 and A549-cispR cells; assay: Viability by cell number after cisplatin; type: cell-based, human; conditions: cell number 72 h after cisplatin, untreated set as 100%
From the text: Parental A549 cells were maintained in culture during the same period.

[2] = tested on: H125 cells; assay: Cell viability, MTS assay, monolayer; type: cell-based, human
Method: (§1) We used two human non-small cell lung cancer (NSCLC) derived cell lines: the adenosquamous cell carcinoma NCI-H125 (CRL-5801) and the adenocarcinoma NIH-A549 (CCL-185). The murine L Wnt-3A cell line (CRL-2647) was used in order to produce conditioned media (CM) containing the wnt3a factor, following ATCC’s instructions. All cell lines were obtained from ATCC. H125 was grown in RPMI medium supplemented with 10% FBS and 80 µg/ml gentamycin. A549 and L cells were grown in DMEM media, with the above mentioned supplementation. All cell lines were cultured at 37 °C in a humidified air atmosphere with 5% CO2.
(§2) To assess the effect of CIGB-300 or cisplatin on cell viability, 1 × 10^4 cells/well were seeded into 96 well plates in standard culture conditions. Twenty-four hours later cells were treated with different doses of CIGB-300 (25–400 μM) or cisplatin (0.3–30 μM) during 72 h. Cell proliferation was evaluated after 72 h using the MTS assay (Celltiter 96TM Non Radioactive Proliferation Assay, Promega), as described by the manufacturer. Data were analyzed using the R package “ic50” [33] in order to determine the IC50 values for each drug. Alternatively, proliferative potential was determined by assessing cell number. Briefly, cells were seeded onto 35 mm Petri dishes, treated and after 72 h wells were washed twice with PBS, trypsinized, centrifuged, resuspended in a proper volume and finally counted using an hemocytometer and trypan blue exclusion. For apoptosis determination, A549 and A549-cispR cells growing on glass coverslips were treated with 300 μM of CIGB-300 for 18 h and then stained with Acridine orange (10 μg/ml) and Ethidium bromide (10 μg/ml). Visualization was performed with a Nikon, Eclipse E400 epifluorescence microscope. Uniform green nuclei with organized structure were considered as live cells. Bright green or orange to red nuclei were classified as early or late apoptotic cells respectively. Uniformly orange to red nuclei with organized structure were ascribed as necrotic cells. The percentage of dead cells was determined for each cell line.

[3] = tested on: NF-κB p65/relA in H125 cells; assay: Western blot of nuclear p65/RelA; type: cell-based, human; conditions: H125, low-lethal dose (IC25), Western blot of nuclear extracts, with or without PMA
Method: (§3) For Wnt/β-CATENIN pathway studies, H125 sub-confluent monolayers were first incubated during 24 h with 50% of CM containing the wnt3a factor and then treated for another 6 h with a low-lethal dose of CIGB-300 (IC25) or during 2 h with the CK2 competitive inhibitor TBB (25 μM) as a control. […] For the analysis of NF-κB downstream targets, H125, A549 or A549-Rcisp cells were incubated for 2 h with CIGB-300 (IC50). In the case of Bortezomib, cells were previously pretreated with 8 nM of this drug during 4 h.
(§4) In order to determine β-CATENIN expression levels, cytoplasmic proteins were extracted using saponin buffer. Briefly, monolayer cultures were incubated for 20 min with ice-cold 0.1% saponin lysis buffer (25 mM Hepes, 75 mM potassium acetate and 0.1% saponin plus phosphatase and protease inhibitors). The extraction procedure was carried out twice and the extracts were pooled prior to their centrifugation. For NF-κB detection, nuclear and cytoplasmic proteins were separated by differential centrifugation following Abcam protocol. Briefly, semiconfluent monolayers were washed twice with ice-cold PBS and then collected in 250 μl of Fractionation Buffer (HEPES 20 mM, KCl 10 mM, MgCl2 2 mM, EDTA 1 mM and 2-Mercaptoethanol […]) with protease and phosphatase inhibitors by scrapping with a Teflon scrapper. […]

[4] = tested on: proteasome in H125 cells; assay: Proteasome-Glo Chymotrypsin-Like Cell-Based Assay; parameters: species or system human; conditions: H125, CIGB-300 30 min, luminescence
Method: Proteasome activity was assessed in H125 cells using the Proteasome-Glo Chymotrypsin-Like Cell-Based Assay (Promega) following manufacturer’s instructions. Briefly, H125 cells were plated onto 96-well plates and 24 h later treated with CIGB-300 (30 min) or with Bortezomib (4 h). Briefly: 100 µl of Proteasome-Glo™ Cell-Based Reagent were added to each 100 µl of sample and incubated at RT for 10 min. Luminescence emission was measured with a Multimode Microplate Reader, Synergy luminometer (Biotek).

[5] = tested on: β-CATENIN in H125 cells; assay: Western blot of cytoplasmic β-CATENIN; type: cell-based, human
Method: as §3, §4

[6] = tested on: A549 and A549-cispR cells; assay: Apoptosis, acridine orange/ethidium bromide double staining; type: cell-based, human; conditions: 300 μM CIGB-300, 18 h
Method: To assess the effect of CIGB-300 or cisplatin on cell viability, 1 × 10^4 cells/well were seeded into 96 well plates in standard culture conditions. Twenty-four hours later cells were treated with different doses of CIGB-300 (25–400 μM) or cisplatin (0.3–30 μM) during 72 h. Cell proliferation was evaluated after 72 h using the MTS assay (Celltiter 96TM Non Radioactive Proliferation Assay, Promega), as described by the manufacturer. Data were analyzed using the R package “ic50” [33] in order to determine the IC50 values for each drug. Alternatively, proliferative potential was determined by assessing cell number. Briefly, cells were seeded onto 35 mm Petri dishes, treated and after 72 h wells were washed twice with PBS, trypsinized, centrifuged, resuspended in a proper volume and finally counted using an hemocytometer and trypan blue exclusion. For apoptosis determination, A549 and A549-cispR cells growing on glass coverslips were treated with 300 μM of CIGB-300 for 18 h and then stained with Acridine orange (10 μg/ml) and Ethidium bromide (10 μg/ml). Visualization was performed with a Nikon, Eclipse E400 epifluorescence microscope. Uniform green nuclei with organized structure were considered as live cells. Bright green or orange to red nuclei were classified as early or late apoptotic cells respectively. […] The percentage of dead cells was determined for each cell line.

[7] = biological target: T1, α7/C8 (PSMA3) in H125 cells (Homo sapiens, UniProt P25788); assay: Confocal immunofluorescence, co-occurrence with α7/C8; type: cell-based; conditions: H125, biotin-conjugated CIGB-300 30 min, cells with cytoplasmic signal, Manders coefficient
T1 construct: endogenous in cells; host or cells: H125 (NCI-H125) human NSCLC cells
Method: H125 cells growing on glass coverslips were treated with biotin-conjugated CIGB-300 for 30 min, washed twice with PBS, fixed in ice cold paraformaldehyde, permeabilized and blocked with PBS containing 5% bovine serum albumin for 1 h at RT. α7/C8 protein was detected by incubation with a specific primary antibody diluted in PBS containing 5% BSA, followed by an incubation with a secondary antibody coupled to Alexa 647 and with Streptavidin-FITC conjugated for 1 h at RT. Nuclei were stained with DAPI. Images were obtained in a LSM 510 Meta confocal Zeiss microscope. Confocal images were processed for presentation with ImageJ. Background of each channel was subtracted. Pearson’s and Mander’s coefficients were calculated using the JACoP plugin [38]. Single cell analysis for 15–20 representative cells was performed on three independent experiments.

[8] = tested on: H125 spheroids; assay: 3D growth inhibition assay, multicellular tumor spheroids; type: cell-based, human; conditions: IC25 and IC50 doses of monolayers, after 5 days of treatment, medium replaced every 48 h
[9] = 24 h post intravenous injection; cited from earlier work
[10] = up to 40 mg/kg/day intravenously; cited from earlier work
[11] = tested on: NF-κB-RE-luc in H125 cells; assay: NF-κB-dependent reporter gene expression; type: cell-based, human; conditions: H125, PMA 16 nM 6 h, CIGB-300 IC25 during first hour, dual luciferase
Method: H125 cells were transiently co-transfected with NF-κB-RE-luc Luciferase Reporter Vector pGL4.32 and the Renilla Luciferase Control Reporter Vector pRL-TK (Promega, Madison, WI) in a 10:1 ratio, using Fugene (Promega) following manufacturer’s instructions. Briefly, 1 × 10^5 cells/well were seeded onto 24-well plates and transfected the next day. Six hours after adding transfection reagents, cells were washed and complete media was added. After an overnight recovery, cells were treated for 6 h with PMA (16 nM), in presence or not of CIGB-300 (IC25) during the first hour. Finally cells were lysed and the luciferase activities were determined using the Dual-Luciferase Reporter Assay System (Promega) and normalized to the constitutive Renilla luciferase activity.

[12] = tested on: A549 cells; assay: Cell viability, MTS assay, monolayer; type: cell-based, human; conditions: dose selected from the viability results
Method: as §1, §2

Compound | viability of A549-cispR relative to parental A549 after cisplatin treatment [1] | IC50 ([2]; MTS assay, 72 h treatment, R package ic50, three independent experiments) [µM] | nuclear levels of p65/relA [3] | proteasomal activity [4] | β-CATENIN cytoplasmic accumulation with active Wnt pathway ([5]; H125, 24 h 50% CM with wnt3a, then CIGB-300 IC25 6 h or TBB 25 μM 2 h) | basal levels of cytoplasmic β-CATENIN ([5]; H125, low-lethal dose CIGB-300 6 h, no wnt3a) | number of dead cells on A549-cispR vs A549 [6] | α7/C8 coincident with CIGB-300 presence [7] | volume of treated spheroids compared with untreated controls [8] | peptide uptake at tumor site [9] | tolerability of high doses [10] | NF-κB transcriptional response [11] | IC25 (low-lethal dose) [12] [µM] | IC25 (low-lethal dose) ([2]; dose selected from the viability results) [µM]
N.N.[Cl][Pt][Cl] [cisplatin, cisdiammine-dichloro-platinum, reference compound] | twofold higher | 1 |  |  |  |  |  |  |  |  |  |  |  | 
CSCC[C@@H]1NC(=O)[C@H](Cc2c[nH]c3ccccc23)NC(=O)[C@@H](NC(=O)CCNC(=O)[C@H](CCC(N)=O)NC(=O)[C@@H]2CCCN2C(=O)[C@@H]2CCCN2C(=O)[C@H](CCCNC(=N)N)NC(=O)[C@H](CCCNC(=N)N)NC(=O)[C@H](CCCNC(=N)N)NC(=O)[C@H](CCC(N)=O)NC(=O)[C@H](CCCNC(=N)N)NC(=O)[C@H](CCCNC(=N)N)NC(=O)[C@H](CCCCN)NC(=O)[C@H](CCCCN)NC(=O)[C@H](CCCNC(=N)N)NC(=O)CN)CSSC[C@@H](C(=O)O)NC(=O)[C@H]([C@@H](C)O)NC(=O)CNC(=O)[C@H](CC(C)C)NC(=O)[C@H](Cc2c[nH]cn2)NC(=O)[C@H](CCCNC(=N)N)NC(=O)[C@@H]2CCCN2C(=O)[C@H](CO)NC1=O [CIGB-300] (H-GRKKRRQRRRPPQ[βAla]CWMSPRHLGTC-OH; disulfide 15-25; N-terminus and C-terminus assumed) |  |  | reduced the nuclear levels | increased proteasomal activity | partially reverted | not reduced | significantly increased | More than 80% | significantly lower | up to 1.5% | safe, well tolerated and non-toxic | decreased NF-κB transcriptional response | 150 | 60
